A short description of the data set: gradient 5% acetonitrile 3 min, to 50% in 2 min, to 85% in 15 min, held 3 min, 100 µL/min. To be noted: column: Zorbax Extend-C18 2.1 x 50 mm; eluents: water / acetonitrile, 0.1% formic acid. The method in brief:
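Retention times of pure standards were taken from adduct peaks that were selected by computer and manually inspected. Over 3 months, mixtures of ~100 molecules were run by HPLC–quadrupole time-of-flight mass spectrometry in positive and negative ionization mode. The Zorbax Extend-C18 column (2.1 × 50 mm, 1.8 μm) ran at 100 μL/min in water and acetonitrile, each containing 0.1% formic acid, with 40 μL dead volume and 900 μL dwell volume.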
The molecule `CCc1ccc(S(=O)(=O)N2CCc3nc(-c4ccccc4)ncc3C2)cc1` had an RP-LC retention time of 1160 s.

Molecule `CC(C)(C)NC(=O)c1ccc2nc(-c3ccccc3)cn2c1` yielded an RP-LC retention time of 783 s. `O=C(NCc1cccnc1)C1=C2CCCN2c2ccc(F)cc2S1(=O)=O` returned an RP-LC retention time of 572 s. `Cc1ccc(CNC(=O)c2nnc(-c3ccc(S(=O)(=O)N4CCCC4)cc3)o2)cc1` returned an RP-LC retention time of 940 s. Turning to `Cc1sc(-c2cc(C(F)(F)F)on2)cc1S(=O)(=O)N1CCN(c2cccc(Cl)c2)CC1`, the RP-LC retention time is 1440 s. The molecule `CCCc1cc(N2CCN(C(=O)c3cccn3C)CC2)nc2nnc(CC)n12` had an RP-LC retention time of 636 s. The molecule `Cc1cccc(C(=O)N2CCC3(CC2)NC(=O)c2ccc(F)cc2N3C)c1` gave an RP-LC retention time of 763 s. As for `CCCNC(=O)c1cn(-c2ccc(-c3nc(C(C)(C)C)no3)cn2)cn1`, the RP-LC retention time turned out to be 931 s. The molecule `CS(=O)(=O)Nc1cccc(NC(=O)c2cc(-c3cccs3)[nH]n2)c1` returned an RP-LC retention time of 699 s. The molecule `O=C(NCc1csc(-c2ccccc2)n1)[C@H]1CCCN1C(=O)c1cccc(Br)c1` gave an RP-LC retention time of 889 s. Molecule `CC(C)n1cnc(S(=O)(=O)N2CCC(C(=O)NCc3ccc(Cl)cc3)CC2)c1` yielded an RP-LC retention time of 749 s. Molecule `Cc1cc(C)cc(N2CCC(NC(=O)Nc3cc(C)ccc3C)C2=O)c1` (configuration not stated) yielded an RP-LC retention time of 955 s. Next, `CNC(=O)C1CCCN(c2nc3ncn(CC(=O)NCc4ccc(Cl)cc4)c(=O)c3s2)C1` (configuration not stated): 666 s; `CCOc1ccc(NC(=O)c2cc(=O)c3cc(Cl)c(C)cc3o2)c2cccnc12`: 714 s.

As for `COc1ccc(-c2csc(NC(=O)CSc3nc4c(cc3C#N)CCCC4)n2)cc1`, the RP-LC retention time is 1180 s.

Molecule `CCN1CCN(C(=O)c2cnn(-c3cc(-c4nc(C)no4)ccn3)c2C)CC1` came in with an RP-LC retention time of 585 s. In the case of `COc1ccc(Cl)cc1C(=O)N1CCN(c2cc(-n3nc(C)cc3C)nc(C)n2)CC1`, the RP-LC retention time came to 988 s.

The molecule `CCOC(=O)C1CCN(C(=O)Cn2nc(C)c3sc(-c4ccccc4)nc3c2=O)CC1` came in with an RP-LC retention time of 842 s.

Take `O=C(NC1CCCC1)c1nc(C(=O)N2CCN(c3ccccc3)CC2)cs1`: the RP-LC retention time was found to be 897 s. Take `CNCC[C@H](Oc1cccc2ccccc12)c1cccs1`: the RP-LC retention time worked out at 788 s. `CCCc1cc(N2CCN(C(=O)C(C)Oc3ccccc3)CC2)nc2nnc(C)n12` (configuration not stated): the RP-LC retention time turned out to be 656 s.

In turn, `CNC(=O)C1CCCN(c2nc3ncn(CC(=O)Nc4ccccc4C(F)(F)F)c(=O)c3s2)C1` (configuration not stated) had an RP-LC retention time of 663 s. Regarding `CCCCS(=O)(=O)c1cc2c(cc1NC(=O)c1ccc(C)cc1)n(C)c(=O)n2C`, the RP-LC retention time worked out at 955 s. For `CCc1ccccc1NC(=O)N1CCC2(CC1)NC(=O)c1ccccc1N2CC`, the RP-LC retention time was found to be 797 s.

In the case of `CCOC(=O)c1noc2ncnc(NCC3CCN(Cc4cccc(F)c4)CC3)c12`, the RP-LC retention time stood at 705 s. `COc1ccc(-c2nnc(-c3cc(S(=O)(=O)N(C)C)ccc3Cl)o2)cc1` came in with an RP-LC retention time of 970 s. Molecule `O=C(c1nc2ccccc2nc1Cl)N1CCN(c2ccccn2)CC1` displayed an RP-LC retention time of 597 s. `CCc1ccc(C2=C(C)C(N3CCCN(C(C)=O)CC3)=NS2(=O)=O)cc1` displayed an RP-LC retention time of 745 s. Turning to `O=C(NCCCN1CCOCC1)c1c(O)c2cccc3c2n(c1=O)CC3`, the RP-LC retention time amounted to 845 s. `COc1ccc(OC)c(NC(=O)Cn2c(C)cc(-c3nnc(C4CCC4)o3)c2C)c1` showed an RP-LC retention time of 924 s. With `CCOC(=O)c1[nH]c(C)c(CN(Cc2ccc(C)cc2)C(=O)COC)c1C`, the RP-LC retention time was found to be 684 s. `CCOC(=O)c1oc2ccccc2c1NC(=O)C1CCN(S(C)(=O)=O)CC1`: the RP-LC retention time was 762 s.

These data come from the METLIN SMRT retention time set (Domingo-Almenara et al. 2019).
